Measured values published in PubChem BioAssay (NCI).
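All cell lines were grown in 96-well plates and treated with compound for 48 hours. GI50 marks 50% less growth. TGI denotes the concentration required for complete inhibition of growth.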

Legend:
Experiment in all cases: inhibition of tumour cell growth, NCI panel, 48 h
[1] = tested on: HCT-116 colon
[2] = tested on: U251 CNS
[3] = tested on: KM12 colon
[4] = tested on: HCT-15 colon
[5] = tested on: BT-549 breast
[6] = tested on: SF-268 CNS
[7] = tested on: IGROV1 ovarian
[8] = tested on: MALME-3M melanoma
[9] = tested on: 786-0 renal
[10] = tested on: SR leukemia
[11] = tested on: HT29 colon
[12] = tested on: MDA-MB-231 breast
[13] = tested on: MCF7 breast
[14] = tested on: TK-10 renal
[15] = tested on: UO-31 renal
[16] = tested on: SK-MEL-28 melanoma
[17] = tested on: COLO 205 colon
[18] = tested on: MOLT-4 leukemia
[19] = tested on: SK-MEL-2 melanoma
[20] = tested on: NCI/ADR-RES ovarian
[21] = tested on: HOP-62 NSCLC
[22] = tested on: M14 melanoma
[23] = tested on: NCI-H522 lung
[24] = tested on: NCI-H226 lung
[25] = tested on: LOX IMVI melanoma
[26] = tested on: HL-60(TB) leukemia
[27] = tested on: A549 NSCLC
[28] = tested on: RPMI-8226 leukemia
[29] = tested on: K-562 leukemia
[30] = tested on: MDA-MB-435
[31] = tested on: PC-3 prostate
[32] = tested on: EKVX NSCLC
[33] = tested on: ACHN renal
[34] = tested on: SK-OV-3 ovarian
[35] = tested on: CAKI-1 renal
[36] = tested on: HS 578T breast
[37] = tested on: SN12C renal
[38] = tested on: SW-620 colon
[39] = tested on: HOP-92 NSCLC
[40] = tested on: SK-MEL-5 melanoma
[41] = tested on: OVCAR-8 ovarian
[42] = tested on: SF-295 CNS
[43] = tested on: OVCAR-4 ovarian
[44] = tested on: DU-145 prostate
[45] = tested on: CCRF-CEM leukemia
[46] = tested on: SNB-19 CNS
[47] = tested on: OVCAR-5 ovarian
[48] = tested on: T-47D breast
[49] = tested on: OVCAR-3 ovarian
[50] = tested on: HCC-2998 colon
[51] = tested on: NCI-H460 lung
[52] = tested on: UACC-257 melanoma
[53] = tested on: A498 renal
[54] = tested on: SF-539 CNS
[55] = tested on: UACC-62 melanoma
[56] = tested on: SNB-75 CNS
[57] = tested on: NCI-H23 lung

N#Cc1cnc2ccc(-c3cnc4n[nH]nc4c3)cc2c1N1CCc2cc(F)c(Cl)cc21
GI50 [1]: 6.44 µM | TGI [1]: 25.3 µM | GI50 [2]: 4.66 µM | TGI [2]: 86.6 µM | GI50 [3]: 4.66 µM | TGI [3]: 32.3 µM | GI50 [4]: 2.71 µM | TGI [4]: 14 µM | GI50 [5]: 2.31 µM | TGI [5]: 14.6 µM | GI50 [6]: 3.22 µM | TGI [6]: 84.6 µM | GI50 [7]: 1.42 µM | TGI [7]: 6.19 µM | GI50 [8]: 2.91 µM | TGI [8]: 16.4 µM | GI50 [9]: 3.55 µM | TGI [9]: > 100 µM | GI50 [10]: 2.3 µM | TGI [10]: 25.8 µM | GI50 [11]: 5.73 µM | TGI [11]: 35 µM | GI50 [12]: 3.64 µM | TGI [12]: 23.3 µM | GI50 [13]: 1.92 µM | TGI [13]: 14 µM | GI50 [14]: 3.23 µM | TGI [14]: 28.6 µM | GI50 [15]: 1.13 µM | TGI [15]: 11.1 µM | GI50 [16]: 3.68 µM | TGI [16]: 33.6 µM | GI50 [17]: 9.19 µM | TGI [17]: 34.3 µM | GI50 [18]: 2.8 µM | TGI [18]: 11.4 µM | GI50 [19]: 2.74 µM | TGI [19]: 12.7 µM | GI50 [20]: 12.8 µM | TGI [20]: 53.3 µM | GI50 [21]: 3.45 µM | TGI [21]: 38.7 µM | GI50 [22]: 5.15 µM | TGI [22]: 38.2 µM | GI50 [23]: 2.82 µM | TGI [23]: 16.7 µM | GI50 [24]: 2.2 µM | TGI [24]: 20 µM | GI50 [25]: 1.76 µM | TGI [25]: 11.4 µM | GI50 [26]: 11.5 µM | TGI [26]: 43.6 µM | GI50 [27]: 3.92 µM | TGI [27]: 72.6 µM | GI50 [28]: 3.02 µM | TGI [28]: 42.5 µM | GI50 [29]: 4.67 µM | TGI [29]: > 100 µM | GI50 [30]: 3.73 µM | TGI [30]: 28.6 µM | GI50 [31]: 3.11 µM | TGI [31]: 25.5 µM | GI50 [32]: 3.26 µM | TGI [32]: 18.5 µM | GI50 [33]: 3.62 µM | TGI [33]: 15.3 µM | GI50 [34]: 3.52 µM | TGI [34]: 19.2 µM | GI50 [35]: 2.99 µM | TGI [35]: 25.2 µM | GI50 [36]: 1.18 µM | TGI [36]: 5.26 µM | GI50 [37]: 3.27 µM | TGI [37]: 41.7 µM | GI50 [38]: 5.2 µM | TGI [38]: 24.6 µM | GI50 [39]: 1.83 µM | TGI [39]: 7.97 µM | GI50 [40]: 2.83 µM | TGI [40]: 8.47 µM | GI50 [41]: 4.62 µM | TGI [41]: > 100 µM | GI50 [42]: 2.54 µM | TGI [42]: 13.3 µM | GI50 [43]: 2.66 µM | TGI [43]: 22.3 µM | GI50 [44]: 4.25 µM | TGI [44]: 66 µM | GI50 [45]: 3.69 µM | TGI [45]: 21.1 µM | GI50 [46]: 3.9 µM | TGI [46]: 77.9 µM | GI50 [47]: 4.07 µM | TGI [47]: 65.1 µM | GI50 [48]: 1.68 µM | TGI [48]: 8 µM | GI50 [49]: 2.97 µM | TGI [49]: 24 µM | GI50 [50]: 2.85 µM | TGI [50]: 14.9 µM | GI50 [51]: 3.48 µM | TGI [51]: 17.4 µM | GI50 [52]: 5.03 µM | TGI [52]: 44.2 µM | GI50 [53]: 1.87 µM | TGI [53]: 6.69 µM | GI50 [54]: 3.17 µM | TGI [54]: 18.9 µM | GI50 [55]: 2.63 µM | TGI [55]: 12.6 µM | GI50 [56]: 0.395 µM | TGI [56]: 5.52 µM | GI50 [57]: 3.16 µM | TGI [57]: 16.1 µM
